According to US20100267561A1, “HERBICIDAL PYRIDAZINONE DERIVATIVES” (priority 2007, published 2010):

How the values were obtained:
Assay type in all cases: in vivo
[1] = tested on: large crabgrass (Digitaria sanguinalis); test: Test A pre-/postemergence plant response
How it was run: (§1)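 Greenhouse pot test: loam–sand soil; pre- and postemergence sprays applied same day; post plants 2–10 cm, 1–2 leaves. Readout ~10 d, visual % injury vs untreated (0 = none, 100 = complete control).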

[2] = tested on: pigweed (Amaranthus retroflexus); test: Test A pre-/postemergence plant response
How it was run: as §1

[3] = tested on: wheat (Triticum aestivum); test: Test A pre-/postemergence plant response
How it was run: as §1

[4] = tested on: barnyardgrass (Echinochloa crus-galli); test: Test A pre-/postemergence plant response
How it was run: as §1

[5] = tested on: velvetleaf (Abutilon theophrasti); test: Test A pre-/postemergence plant response
How it was run: as §1

[6] = tested on: morningglory (Ipomoea coccinea); test: Test A pre-/postemergence plant response
How it was run: as §1

[7] = tested on: corn (Zea mays); test: Test A pre-/postemergence plant response
How it was run: as §1

[8] = tested on: giant foxtail (Setaria faberi); test: Test A pre-/postemergence plant response
How it was run: as §1

[9] = tested on: winter barley (Hordeum vulgare); test: Test B postemergence plant response; conditions: for Barley plant response rating: 8 g ai/ha, postemergence, 0-100 scale; for Plant response rating, Barley: Postemergence, scale 0 to 100, 0 no effect, 100 complete control
How it was run: (§2)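 Visual injury ratings on a 0–100 scale, where 100 means complete control, were made 13 to 15 days after postemergence treatment of greenhouse-grown plants at the 1- to 4-leaf stage.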

[10] = tested on: canarygrass (Phalaris minor); test: Test B postemergence plant response; conditions: for Canarygrass plant response rating: 8 g ai/ha, postemergence, 0-100 scale; for Plant response rating, Canarygrass: Postemergence
How it was run: as §2

[11] = tested on: windgrass (Apera spica-venti); test: Test B postemergence plant response; conditions: for Windgrass plant response rating: 8 g ai/ha, postemergence, 0-100 scale; for Plant response rating, Windgrass: Postemergence
How it was run: as §2

[12] = tested on: chickweed (Stellaria media); test: Test B postemergence plant response; conditions: for Chickweed plant response rating: 8 g ai/ha, postemergence, 0-100 scale; for Plant response rating, Chickweed: Postemergence
How it was run: as §2

[13] = Postemergence, 31 g ai/ha, 0 to 100 scale, 0 no effect, 100 complete control
[14] = Postemergence, 125 g ai/ha, 0 to 100 scale, 0 no effect, 100 complete control
[15] = Preemergence, 31 g ai/ha, 0 to 100 scale, 0 is no effect, 100 is complete control
[16] = Preemergence, 125 g ai/ha, 0 to 100 scale (0 no effect, 100 complete control)
[17] = 31 g ai/ha, scale 0 to 100, 0 no effect, 100 complete control
[18] = 62 g ai/ha, scale 0 to 100, 0 no effect, 100 complete control

CCCc1cc(-c2ccc(Cl)cc2)nn1-c1c(O)cnn(C)c1=O [Compound 43]
Plant response rating, Crabgrass, Large [1, 13]: 40 | Plant response rating, Crabgrass, Large [1, 14]: 90 | Plant response rating, Crabgrass, Large [1, 15]: 10 | Plant response rating, Crabgrass, Large [1, 16]: 90 | Plant response rating, Pigweed [2, 13]: 0 | Plant response rating, Pigweed [2, 14]: 0 | Plant response rating, Pigweed [2, 15]: 0 | Plant response rating, Pigweed [2, 16]: 0 | Plant response rating, Wheat [3, 13]: 40 | Plant response rating, Wheat [3, 14]: 80 | Plant response rating, Wheat [3, 15]: 20 | Plant response rating, Wheat [3, 16]: 70 | Plant response rating, Barnyardgrass [4, 13]: 90 | Plant response rating, Barnyardgrass [4, 14]: 100 | Plant response rating, Barnyardgrass [4, 15]: 100 | Plant response rating, Barnyardgrass [4, 16]: 100 | Plant response rating, Velvetleaf [5, 13]: 0 | Plant response rating, Velvetleaf [5, 14]: 0 | Plant response rating, Velvetleaf [5, 15]: 0 | Plant response rating, Velvetleaf [5, 16]: 0 | Plant response rating, Morningglory [6, 13]: 0 | Plant response rating, Morningglory [6, 14]: 0 | Plant response rating, Morningglory [6, 15]: 0 | Plant response rating, Morningglory [6, 16]: 0 | Plant response rating, Corn [7, 13]: 50 | Plant response rating, Corn [7, 14]: 80 | Plant response rating, Corn [7, 15]: 0 | Plant response rating, Corn [7, 16]: 90 | Plant response rating, Foxtail, Giant [8, 13]: 80 | Plant response rating, Foxtail, Giant [8, 14]: 100 | Plant response rating, Foxtail, Giant [8, 15]: 90 | Plant response rating, Foxtail, Giant [8, 16]: 100 | Barley plant response rating [9]: 20 | Plant response rating, Barley ([9]; 16 g ai/ha): 50 | Plant response rating, Barley ([9]; 62 g ai/ha): 50 | Canarygrass plant response rating [10]: 30 | Plant response rating, Canarygrass ([10]; 16 g ai/ha, scale 0 to 100): 50 | Plant response rating, Canarygrass [10, 17]: 50 | Plant response rating, Canarygrass [10, 18]: 95 | Windgrass plant response rating [11]: 50 | Plant response rating, Windgrass ([11]; 16 g ai/ha, scale 0 to 100): 70 | Plant response rating, Windgrass [11, 18]: 100 | Chickweed plant response rating [12]: 0 | Plant response rating, Chickweed ([12]; 16 g ai/ha, scale 0 to 100): 0 | Plant response rating, Chickweed [12, 17]: 0 | Plant response rating, Chickweed [12, 18]: 0

Cc1cc(-c2ccc(C(F)(F)F)c(F)c2)nn1-c1c(O)c(C(F)(F)F)nn(C)c1=O [Compound 44]
Plant response rating, Crabgrass, Large [1, 13]: 50 | Plant response rating, Crabgrass, Large [1, 14]: 100 | Plant response rating, Crabgrass, Large [1, 15]: 20 | Plant response rating, Crabgrass, Large [1, 16]: 100 | Plant response rating, Pigweed [2, 13]: 0 | Plant response rating, Pigweed [2, 14]: 0 | Plant response rating, Pigweed [2, 15]: 0 | Plant response rating, Pigweed [2, 16]: 0 | Plant response rating, Wheat [3, 13]: 70 | Plant response rating, Wheat [3, 14]: 80 | Plant response rating, Wheat [3, 15]: 40 | Plant response rating, Wheat [3, 16]: 80 | Plant response rating, Barnyardgrass [4, 13]: 100 | Plant response rating, Barnyardgrass [4, 14]: 100 | Plant response rating, Barnyardgrass [4, 15]: 80 | Plant response rating, Barnyardgrass [4, 16]: 100 | Plant response rating, Velvetleaf [5, 13]: 0 | Plant response rating, Velvetleaf [5, 14]: 0 | Plant response rating, Velvetleaf [5, 15]: 0 | Plant response rating, Velvetleaf [5, 16]: 0 | Plant response rating, Morningglory [6, 13]: 0 | Plant response rating, Morningglory [6, 14]: 0 | Plant response rating, Morningglory [6, 15]: 0 | Plant response rating, Morningglory [6, 16]: 0 | Plant response rating, Corn [7, 13]: 70 | Plant response rating, Corn [7, 14]: 90 | Plant response rating, Corn [7, 15]: 30 | Plant response rating, Corn [7, 16]: 80 | Plant response rating, Foxtail, Giant [8, 13]: 90 | Plant response rating, Foxtail, Giant [8, 14]: 100 | Plant response rating, Foxtail, Giant [8, 15]: 80 | Plant response rating, Foxtail, Giant [8, 16]: 100 | Barley plant response rating [9]: 15 | Plant response rating, Barley ([9]; 16 g ai/ha): 20 | Plant response rating, Barley ([9]; 31 g ai/ha): 20 | Plant response rating, Barley ([9]; 62 g ai/ha): 20 | Canarygrass plant response rating [10]: 50 | Plant response rating, Canarygrass ([10]; 16 g ai/ha, scale 0 to 100): 90 | Plant response rating, Canarygrass [10, 17]: 90 | Windgrass plant response rating [11]: 85 | Plant response rating, Windgrass ([11]; 16 g ai/ha, scale 0 to 100): 85 | Plant response rating, Windgrass [11, 18]: 100 | Chickweed plant response rating [12]: 0 | Plant response rating, Chickweed ([12]; 16 g ai/ha, scale 0 to 100): 0 | Plant response rating, Chickweed [12, 17]: 0 | Plant response rating, Chickweed [12, 18]: 0

Cn1ncc(O)c(-n2nc(-c3ccc(Cl)cc3)cc2C2CC2)c1=O [Compound 45]
Plant response rating, Crabgrass, Large [1, 13]: 40 | Plant response rating, Crabgrass, Large [1, 14]: 100 | Plant response rating, Crabgrass, Large [1, 15]: 30 | Plant response rating, Crabgrass, Large [1, 16]: 90 | Plant response rating, Pigweed [2, 13]: 0 | Plant response rating, Pigweed [2, 14]: 0 | Plant response rating, Pigweed [2, 15]: 0 | Plant response rating, Pigweed [2, 16]: 0 | Plant response rating, Wheat [3, 13]: 70 | Plant response rating, Wheat [3, 14]: 90 | Plant response rating, Wheat [3, 15]: 50 | Plant response rating, Wheat [3, 16]: 80 | Plant response rating, Barnyardgrass [4, 13]: 80 | Plant response rating, Barnyardgrass [4, 14]: 100 | Plant response rating, Barnyardgrass [4, 15]: 90 | Plant response rating, Barnyardgrass [4, 16]: 100 | Plant response rating, Velvetleaf [5, 13]: 0 | Plant response rating, Velvetleaf [5, 14]: 0 | Plant response rating, Velvetleaf [5, 15]: 0 | Plant response rating, Velvetleaf [5, 16]: 0 | Plant response rating, Morningglory [6, 13]: 0 | Plant response rating, Morningglory [6, 14]: 0 | Plant response rating, Morningglory [6, 15]: 0 | Plant response rating, Morningglory [6, 16]: 0 | Plant response rating, Corn [7, 13]: 40 | Plant response rating, Corn [7, 14]: 80 | Plant response rating, Corn [7, 15]: 0 | Plant response rating, Corn [7, 16]: 60 | Plant response rating, Foxtail, Giant [8, 13]: 90 | Plant response rating, Foxtail, Giant [8, 14]: 100 | Plant response rating, Foxtail, Giant [8, 15]: 90 | Plant response rating, Foxtail, Giant [8, 16]: 100 | Barley plant response rating [9]: 5 | Plant response rating, Barley ([9]; 16 g ai/ha): 5 | Plant response rating, Barley ([9]; 31 g ai/ha): 5 | Plant response rating, Barley ([9]; 62 g ai/ha): 5 | Canarygrass plant response rating [10]: 0 | Plant response rating, Canarygrass ([10]; 16 g ai/ha, scale 0 to 100): 0 | Plant response rating, Canarygrass ([10]; 31 g ai/ha, scale 0 to 100): 0 | Plant response rating, Canarygrass [10, 18]: 0 | Windgrass plant response rating [11]: 30 | Plant response rating, Windgrass ([11]; 16 g ai/ha, scale 0 to 100): 35 | Plant response rating, Windgrass ([11]; 31 g ai/ha, scale 0 to 100): 60 | Plant response rating, Windgrass [11, 18]: 65 | Chickweed plant response rating [12]: 0 | Plant response rating, Chickweed ([12]; 16 g ai/ha, scale 0 to 100): 0 | Plant response rating, Chickweed ([12]; 31 g ai/ha, scale 0 to 100): 0 | Plant response rating, Chickweed [12, 18]: 0
